# In US7071179B2, “Method of locking 1α-OH of vitamin D compounds in axial orientation” (Wisconsin Alumni Research Foundation, priority 1998, dated 2006):
# Legend:
# [1] = tested on: intestinal calcium transport; assay: intestinal calcium transport activity; details: in vivo
# [2] = biological testing of 10,19-dihydrovitamin D3 compounds, in vivo biological response; details: compared among the 1α,25-dihydroxy-10,19-dihydrovitamin D3 compounds tested
smiles,measurement,setting,value
"CC(CCCC(C)(C)O)C1CCC2C(=CC=C3CC(O)CC(O)C3C)CCCC21C [1α,25-dihydroxy-10(S), 19-dihydrovitamin D3]",activity on intestinal calcium transport,[1],very significant activity
same,in vivo biological response,[2],greatest in vivo biological response
